Laboratory results as given in US8598202B2, “Aryl-hydroxyethylamino-pyrimidines and triazines as modulators of fatty acid amide hydrolase” (Janssen Pharmaceutica NV, priority 2008, dated 2013).
Counter-ions that a name gives are not always drawn. Like-named read-outs stand apart in the source and are kept apart here.

Legend:
FAAH = target: T1, FAAH (Homo sapiens, UniProt O00519); experiment: Assay Method 1: FAAH assay, 3H-anandamide hydrolysis in homogenate of T84 cells or SK-N-MC cells transfected with human FAAH
T1 sequence (O00519 1-579): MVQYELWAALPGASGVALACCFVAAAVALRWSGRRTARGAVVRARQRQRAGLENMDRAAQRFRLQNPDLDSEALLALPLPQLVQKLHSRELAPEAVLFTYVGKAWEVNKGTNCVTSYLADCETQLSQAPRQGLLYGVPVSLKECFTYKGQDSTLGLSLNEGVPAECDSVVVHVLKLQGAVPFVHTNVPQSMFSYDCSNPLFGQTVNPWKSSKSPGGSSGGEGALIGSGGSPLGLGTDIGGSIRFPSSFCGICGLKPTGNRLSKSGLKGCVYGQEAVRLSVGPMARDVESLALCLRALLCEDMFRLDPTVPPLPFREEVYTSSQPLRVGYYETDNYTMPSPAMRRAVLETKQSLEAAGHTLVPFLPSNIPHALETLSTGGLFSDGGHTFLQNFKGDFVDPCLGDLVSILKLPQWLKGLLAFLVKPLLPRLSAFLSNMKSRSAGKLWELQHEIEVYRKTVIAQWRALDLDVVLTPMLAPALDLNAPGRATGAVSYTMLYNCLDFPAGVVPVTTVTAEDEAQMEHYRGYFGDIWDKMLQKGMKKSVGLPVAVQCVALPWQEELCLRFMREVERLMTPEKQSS

Rat FAAH-1 = target: T2, Rat FAAH-1 (Rattus norvegicus, UniProt P97612); experiment: Assay Method 2: rat FAAH-1 assay, 3H-anandamide hydrolysis in homogenate of SK-N-MC cells transfected with rat FAAH
T2 sequence (P97612 1-579): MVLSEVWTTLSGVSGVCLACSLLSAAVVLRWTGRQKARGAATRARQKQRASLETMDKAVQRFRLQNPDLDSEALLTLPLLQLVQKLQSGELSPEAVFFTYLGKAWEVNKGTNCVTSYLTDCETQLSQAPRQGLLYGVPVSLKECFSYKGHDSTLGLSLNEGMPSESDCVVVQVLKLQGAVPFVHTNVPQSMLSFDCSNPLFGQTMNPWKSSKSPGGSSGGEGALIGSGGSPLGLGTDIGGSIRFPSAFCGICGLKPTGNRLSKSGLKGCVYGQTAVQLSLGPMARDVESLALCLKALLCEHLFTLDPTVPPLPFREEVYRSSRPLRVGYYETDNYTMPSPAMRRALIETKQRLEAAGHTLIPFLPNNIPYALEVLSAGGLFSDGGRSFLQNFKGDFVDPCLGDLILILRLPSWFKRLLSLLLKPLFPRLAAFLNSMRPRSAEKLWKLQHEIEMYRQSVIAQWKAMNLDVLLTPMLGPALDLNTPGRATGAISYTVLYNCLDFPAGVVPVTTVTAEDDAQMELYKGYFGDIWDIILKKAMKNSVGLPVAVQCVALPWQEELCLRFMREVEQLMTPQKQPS

IC50 (FAAH)	IC50 (Rat FAAH-1)	IC50 (FAAH; read-out: Assay 1 IC50, Table 2, Comparative Examples, human FAAH)	IC50 (Rat FAAH-1; read-out: Assay 2 IC50, Table 2, Comparative Examples, rat FAAH-1)	SMILES
> 10000 nM	> 10000 nM	–	–	OC(CNc1cc(-c2ccsc2)ncn1)c1ccccc1 (stereo not shown) [Example 245, 1-Phenyl-2-(6-thiophen-3-yl-pyrimidin-4-ylamino)-ethanol]
1000 nM	2200 nM	–	–	N#Cc1ccc(-c2cc(NC[C@H](O)c3ccccc3)ncn2)cn1 [Example 77, 5-(6-{[(2R)-2-Hydroxy-2-phenylethyl]amino}pyrimidin-4-yl)pyridine-2-carbonitrile]
> 10000 nM	> 10000 nM	–	–	OC(CNc1cc(-c2c(C(F)(F)F)cccc2C(F)(F)F)ncn1)c1ccccc1 (stereo not shown) [CE1, 2-[6-(2,6-Bis-trifluoromethyl-phenyl)-pyrimidin-4-ylamino]-1-phenyl-ethanol, reference compound]
90 nM	110 nM	–	–	OC(CNc1cc(-c2ccc(OC(F)(F)F)cc2)ncn1)c1cccc(Cl)c1 (stereo not shown) [Example 116, 1-(3-Chlorophenyl)-2-[(6-{4-[(trifluoromethyl)oxy]phenyl}pyrimidin-4-yl)amino]ethanol]
340 nM	1500 nM	–	–	OCc1ccc(-c2cc(NC[C@H](O)c3ccccc3)ncn2)cc1 [Example 21, (1R)-2-([6-[4-(Hydroxymethyl)phenyl]pyrimidin-4-yl]amino)-1-Phenylethanol]
17 nM	55 nM	–	–	C[C@H](Nc1cc(-c2ccc(OC(F)(F)F)cc2)ncn1)[C@H](O)c1ccccc1 [Example 119, (1R,2S)-1-Phenyl-2-[(6-{4-[(trifluoromethyl)oxy]phenyl}pyrimidin-4-yl)amino]propan-1-ol]
81 nM	270 nM	–	–	O=Cc1ccc(-c2cc(NC[C@H](O)c3ccccc3)ncn2)cc1 [Example 22, 4-(6-{[(2R)-2-Hydroxy-2-phenylethyl]amino}pyrimidin-4-yl)benzaldehyde]
305 nM	350 nM	–	–	O[C@@H](CNc1ncnc(-c2ccc(C(F)(F)F)cc2)n1)c1ccccc1 [Example 103, (1R)-1-Phenyl-2-({4-[4-(trifluoromethyl)phenyl]-1,3,5-triazin-2-yl}amino)ethanol trifluoroacetic acid salt]
> 10000 nM	> 10000 nM	–	–	OC(CNc1cc(-c2cc(C(F)(F)F)cc(C(F)(F)F)c2)ncn1)c1ccccc1 (stereo not shown) [Example 239, 2-[6-(3,5-Bis-trifluoromethyl-phenyl)-pyrimidin-4-ylamino]-1-phenyl-ethanol]
127 nM	265 nM	–	–	Cc1n[nH]c2cc(-c3cc(NC[C@H](O)c4ccccc4)ncn3)ccc12 [Example 140, (1R)-2-{[6-(3-Methyl-1H-indazol-6-yl)pyrimidin-4-yl]amino}-1-phenylethanol trifluoroacetic acid salt]
–	–	7000 nM	> 10000 nM	Oc1ccc(-c2cc(NCC(O)c3ccccc3)ncn2)cc1 (stereo not shown) [CE6, 4-[6-(2-Hydroxy-2-phenyl-ethylamino)-pyrimidin-4-yl]-phenol, reference compound]
13 nM	19 nM	–	–	OC(CNc1cc(-c2ccc(OC(F)(F)F)cc2)ncn1)c1ccc2c(c1)OC(F)(F)O2 (stereo not shown) [Example 122, 1-(2,2-Difluoro-1,3-benzodioxol-5-yl)-2-[(6-{4-[(trifluoromethyl)oxy]phenyl}pyrimidin-4-yl)amino]ethanol]
165 nM	1600 nM	–	–	OC(CNc1cc(-c2ccc(C(F)(F)F)c(Cl)c2)ncn1)c1ccc(-n2ccnc2)cc1 (stereo not shown) [Example 200, 2-({6-[3-Chloro-4-(trifluoromethyl)phenyl]pyrimidin-4-yl}amino)-1-[4-(1H-imidazol-1-yl)phenyl]ethanol]
270 nM	200 nM	–	–	COc1ccc(C(O)CNc2cc(-c3ccc(C(F)(F)F)c(Cl)c3)ncn2)cc1Cl (stereo not shown) [Example 203, 1-(3-Chloro-4-methoxyphenyl)-2-({6-[3-chloro-4-(trifluoromethyl)phenyl]pyrimidin-4-yl}amino)ethanol]
56 nM	50 nM	–	–	OC(CNc1cc(-c2ccc(C(F)(F)F)c(Cl)c2)ncn1)c1c(F)cccc1F (stereo not shown) [Example 211, 2-({6-[3-Chloro-4-(trifluoromethyl)phenyl]pyrimidin-4-yl}amino)-1-(2,6-difluorophenyl)ethanol]
150 nM	600 nM	–	–	O[C@@H](CNc1cc(-c2ccc3nonc3c2)ncn1)c1ccccc1 [Example 45, (1R)-2-{[6-(2,1,3-Benzoxadiazol-5-yl)pyrimidin-4-yl]amino}-1-Phenylethanol trifluoroacetic acid salt]
108 nM	43 nM	–	–	OC(CNc1cc(-c2ccc(C(F)(F)F)c(Cl)c2)ncn1)c1cc2ccccc2s1 (stereo not shown) [Example 196, 1-(1-Benzothiophen-2-yl)-2-({6-[3-chloro-4-(trifluoromethyl)phenyl]pyrimidin-4-yl}amino)ethanol]
20 nM	40 nM	–	–	Cc1nc(NC[C@H](O)c2ccccc2)cc(-c2ccc(C(F)(F)F)c(Cl)c2)n1 [Example 73, (1R)-2-({6-[3-Chloro-4-(trifluoromethyl)phenyl]-2-methylpyrimidin-4-yl}amino)-1-phenylethanol]
350 nM	1300 nM	–	–	OC(CNc1cc(-c2ccc(Cl)cc2)ncn1)c1ccccc1 (stereo not shown) [Example 2, 2-{[6-(4-Chlorophenyl)pyrimidin-4-yl]amino}-1-phenylethanol]
7070 nM	> 10000 nM	–	–	O[C@@H](CNc1cc(-c2cc3ccc(C(F)(F)F)cc3s2)ncn1)c1ccccc1 [Example 186, (1R)-1-Phenyl-2-({6-[6-(trifluoromethyl)-1-benzothiophen-2-yl]pyrimidin-4-yl}amino)ethanol trifluoroacetic acid salt]
18 nM	41 nM	–	–	OC(CNc1cc(-c2ccc(OC(F)(F)F)cc2)ncn1)c1ccc(F)cc1 (stereo not shown) [Example 113, 1-(4-Fluorophenyl)-2-[(6-{4-[(trifluoromethyl)oxy]phenyl}pyrimidin-4-yl)amino]ethanol]
46 nM	43 nM	–	–	OC(CNc1cc(-c2ccc(OC(F)(F)F)cc2)ncn1)c1ccc(Cl)c(Cl)c1 (stereo not shown) [Example 114, 1-(3,4-Dichlorophenyl)-2-[(6-{4-[(trifluoromethyl)oxy]phenyl}-pyrimidin-4-yl)amino]ethanol]
17 nM	50 nM	–	–	CSc1nc(NC[C@H](O)c2ccccc2)cc(-c2ccc(C(F)(F)F)c(F)c2)n1 [Example 102, (1R)-2-({6-[3-Fluoro-4-(trifluoromethyl)phenyl]-2-(methylsulfanyl)pyrimidin-4-yl}amino)-1-phenylethanol trifluoroacetic acid salt]
800 nM	4000 nM	–	–	OC(CNc1cc(-c2ccc(OC(F)(F)F)cc2)ncn1)c1cccnc1 (stereo not shown) [Example 124, 1-Pyridin-3-yl-2-[(6-{4-[(trifluoromethyl)oxy]phenyl}pyrimidin-4-yl)amino]ethanol]
30 nM	15 nM	–	–	OC(CNc1cc(-c2ccc(C(F)(F)F)c(Cl)c2)ncn1)c1ccc(Cl)c(F)c1 (stereo not shown) [Example 133, 1-(4-Chloro-3-fluoro-Phenyl)-2-[6-(3-chloro-4-trifluoromethyl-phenyl)-pyrimidin-4-ylamino]-ethanol trifluoroacetic acid salt]
20 nM	400 nM	–	–	O[C@@H](CNc1cc(-c2cc3cc(F)ccc3s2)ncn1)c1ccccc1 [Example 187, (1R)-2-{[6-(5-Fluoro-1-benzothiophen-2-yl)pyrimidin-4-yl}amino]-1-Phenylethanol]
